≈ marks a conversion by molar mass, not a printed value. Where two headings read alike, the source gives them in different places.
Assays:
[1] = system: Spodoptera litura; assay: Antifeedant activity against late third instar of Spodoptera litura (leaf disk, oral feeding); assay type: in vivo
[2] = system: Aedes aegypti mosquito; conditions: various aquatic stages of Aedes aegypti; cited from earlier work
[3] = in vivo; conditions: Artemia salina (brine shrimp), other: exposure in artificial seawater in the sample vial
[4] = system: lice; conditions: in vivo; cited from earlier work
[5] = system: Helicoverpa armigera; assay type: in vivo; conditions: topical
[6] = system: Aedes aegypti; assay type: in vivo; conditions: IV instar larvae, 24 hours
[7] = system: Spodoptera litura; assay type: in vivo; conditions: topical
[8] = system: Brine shrimp, Artemia salina; conditions: in vivo

## C/C=C(\C)C(=O)O[C@H]1C[C@@H](OC(C)=O)[C@@]2(C(=O)OC)CO[C@H]3[C@@H](O)[C@@](C)([C@]45O[C@@]4(C)[C@H]4C[C@@H]5O[C@@H]5OC=C[C@@]54O)[C@H]4[C@]1(CO[C@]4(O)C(=O)OC)[C@@H]32 [Azadiractin, reference compound]
[1]; in vivo
  Concentration required for 50% leaf protection EC50 ± S.E.: 6.34 ± 1.77 μg/cm^2

## CC(C)COC(=S)SCCSC(=S)OCC(C)C [Ethylene bis (isobutylxanthate), Ethylene Bis (isobutylxanthate)]
[2]
  larvicidal and insect growth regulatory activity: larvicidal and insect growth regulatory activity in dose dependent mannar
[3]
  LC50 at 24 h: 25.8 ± 2.9 µg/mL (≈ 78.9 µM)
[1]; 20 μg/sq. cm.
  A.I. (Anti-feedent Index): 8.14
  Percent leaf consumption 12 hr: 60.2%
  Percent leaf consumption 24 hr: 80.7%
[1]; 35 μg/sq. cm.
  A.I. (Anti-feedent Index): 20.48
  Percent leaf consumption 12 hr: 36.1%
  Percent leaf consumption 24 hr: 62.7%
[1]; 50 μg/sq. cm.
  A.I. (Anti-feedent Index): 34.85
  Percent leaf consumption 12 hr: 22.4%
  Percent leaf consumption 24 hr: 45.9%
[1]; 65 μg/sq. cm.
  A.I. (Anti-feedent Index): 58.07
  Percent leaf consumption 12 hr: 9.3%
  Percent leaf consumption 24 hr: 25.2%
[1]; late third instar
  Concentration required for 50% leaf protection EC50 ± S.E.: 42.46 ± 5.76 μg/cm^2

## S=C(OCc1ccccc1)SCCSC(=S)OCc1ccccc1 [Compound 5, Ethylene Bis(benzylxanthate)]
[4]
  insecticidal activity against lice: moderate insecticidal activity

## CCCCOC(=S)SCSC(=S)OCCCC [Methylene bis (n-butylxanthate), Methylene Bis(n-butylxanthate)]
[5]; 20 μg/Insect
  Adult emergence: Abnormal adults: 41
  Adult emergence: Intermediates: 17
  Adult emergence: Non emergence: 3
  Adult emergence: Normal adults: 27
  Larval mortality (%): 7%
  Pupal Formation: Abnormal pupa: 36
  Pupal Formation: Normal pupa: 52
  Pupal Formation: Pupal Mortality: 5
[5]; 35 μg/Insect
  Adult emergence: Abnormal adults: 11
  Adult emergence: Intermediates: 18
  Adult emergence: Non emergence: 9
  Adult emergence: Normal adults: 17
  Larval mortality (%): 12%
  Pupal Formation: Abnormal pupa: 28
  Pupal Formation: Normal pupa: 27
  Pupal Formation: Pupal Mortality: 33
[5]; 50 μg/Insect
  Adult emergence: Abnormal adults: 9
  Adult emergence: Intermediates: 6
  Adult emergence: Non emergence: 21
  Adult emergence: Normal adults: 8
  Larval mortality (%): 28%
  Pupal Formation: Abnormal pupa: 32
  Pupal Formation: Normal pupa: 12
  Pupal Formation: Pupal Mortality: 28
[5]; 75 μg/Insect
  Adult emergence: Abnormal adults: 1
  Adult emergence: Intermediates: 2
  Adult emergence: Non emergence: 24
  Adult emergence: Normal adults: 0
  Larval mortality (%): 49%
  Pupal Formation: Abnormal pupa: 27
  Pupal Formation: Normal pupa: 0
  Pupal Formation: Pupal Mortality: 24
[5]; 100 μg/Insect
  Adult emergence: Abnormal adults: 0
  Adult emergence: Intermediates: 2
  Adult emergence: Non emergence: 20
  Adult emergence: Normal adults: 0
  Larval mortality (%): 61%
  Pupal Formation: Abnormal pupa: 22
  Pupal Formation: Normal pupa: 0
  Pupal Formation: Pupal Mortality: 17
[6]
  LC50 ± S.E.: 5.33 ± 0.97 µg/mL (≈ 17.1 µM)
[1]; 10 μg/sq. cm.
  A.I. (Anti-feedent Index): 5.50
  Percent leaf consumption 12 hr: 48.55%
  Percent leaf consumption 24 hr: 85.1%
[1]; 15 μg/sq. cm.
  A.I. (Anti-feedent Index): 22.27
  Percent leaf consumption 12 hr: 35.2%
  Percent leaf consumption 24 hr: 60.4%
[1]; 20 μg/sq. cm.
  A.I. (Anti-feedent Index): 35.14
  Percent leaf consumption 12 hr: 22.5%
  Percent leaf consumption 24 hr: 45.6%
[1]; 25 μg/sq. cm.
  A.I. (Anti-feedent Index): 64.22
  Percent leaf consumption 12 hr: 3.5%
  Percent leaf consumption 24 hr: 20.7%
[1]; 30 μg/sq. cm.
  A.I. (Anti-feedent Index): 85.37
  Percent leaf consumption 12 hr: 0%
  Percent leaf consumption 24 hr: 7.5%
[1]; late third instar
  Concentration required for 50% leaf protection EC50 ± S.E.: 17.11 ± 1.36 μg/cm^2
[7]; 5 μg/Insect
  Adult emergence: Abnormal adults: 26
  Adult emergence: Intermediates: 28
  Adult emergence: Non-emergence: 0
  Adult emergence: Normal adults: 41
  Larval mortality (%): 0%
  Pupal Formation: Abnormal pupa: 41
  Pupal Formation: Normal pupa: 59
  Pupal Formation: Pupal Mortality: 5
[7]; 10 μg/Insect
  Adult emergence: Abnormal adults: 22
  Adult emergence: Intermediates: 34
  Adult emergence: Non-emergence: 1
  Adult emergence: Normal adults: 36
  Larval mortality (%): 0%
  Pupal Formation: Abnormal pupa: 48
  Pupal Formation: Normal pupa: 52
  Pupal Formation: Pupal Mortality: 8
[7]; 20 μg/Insect
  Adult emergence: Abnormal adults: 27
  Adult emergence: Intermediates: 32
  Adult emergence: Non-emergence: 2
  Adult emergence: Normal adults: 24
  Larval mortality (%): 0%
  Pupal Formation: Abnormal pupa: 53
  Pupal Formation: Normal pupa: 47
  Pupal Formation: Pupal Mortality: 17
[7]; 35 μg/Insect
  Adult emergence: Abnormal adults: 23
  Adult emergence: Intermediates: 23
  Adult emergence: Non-emergence: 25
  Adult emergence: Normal adults: 7
  Larval mortality (%): 21%
  Pupal Formation: Abnormal pupa: 54
  Pupal Formation: Normal pupa: 25
  Pupal Formation: Pupal Mortality: 26
[7]; 50 μg/Insect
  Adult emergence: Abnormal adults: 6
  Adult emergence: Intermediates: 8
  Adult emergence: Non-emergence: 9
  Adult emergence: Normal adults: 5
  Larval mortality (%): 57%
  Pupal Formation: Abnormal pupa: 38
  Pupal Formation: Normal pupa: 5
  Pupal Formation: Pupal Mortality: 24
[7]; 75 μg/Insect
  Adult emergence: Abnormal adults: 1
  Adult emergence: Intermediates: 2
  Adult emergence: Non-emergence: 25
  Adult emergence: Normal adults: 0
  Larval mortality (%): 72%
  Pupal Formation: Abnormal pupa: 28
  Pupal Formation: Normal pupa: 0
  Pupal Formation: Pupal Mortality: 25
[7]; 100 μg/Insect
  Adult emergence: Abnormal adults: 0
  Adult emergence: Intermediates: 0
  Adult emergence: Non-emergence: 14
  Adult emergence: Normal adults: 0
  Larval mortality (%): 86%
  Pupal Formation: Abnormal pupa: 14
  Pupal Formation: Normal pupa: 0
  Pupal Formation: Pupal Mortality: 14

## S=C(OCC1CCCO1)SCSC(=S)OCC1CCCO1 (stereo not shown) [methylene Bis (tetrahydrofurfuryl xanthate)]
[8]
  LC50 ± S.E.: 5.63 ± 0.62 µg/mL (≈ 15.3 µM)
[6]
  LC50 ± S.E.: 3.77 ± 0.59 µg/mL (≈ 10.2 µM)
[1]; 12.5 μg/sq. cm.
  A.I. (Anti-feedent Index): 8.20
  Percent leaf consumption 12 hr: 48.6%
  Percent leaf consumption 24 hr: 80.6%
[1]; 25 μg/sq. cm.
  A.I. (Anti-feedent Index): 22.42
  Percent leaf consumption 12 hr: 31.5%
  Percent leaf consumption 24 hr: 60.2%
[1]; 35 μg/sq. cm.
  A.I. (Anti-feedent Index): 33.52
  Percent leaf consumption 12 hr: 25.9%
  Percent leaf consumption 24 hr: 47.3%
[1]; 50 μg/sq. cm.
  A.I. (Anti-feedent Index): 35.23
  Percent leaf consumption 12 hr: 22.1%
  Percent leaf consumption 24 hr: 45.5%
[1]; late third instar
  Concentration required for 50% leaf protection EC50 ± S.E.: 37.21 ± 9.67 μg/cm^2
[7]; 5 μg/Insect
  Adult emergence: Abnormal adults: 22
  Adult emergence: Intermediates: 0
  Adult emergence: Non-emergence: 3
  Adult emergence: Normal adults: 37
  Larval mortality (%): 36%
  Pupal Formation: Abnormal pupa: 6
  Pupal Formation: Normal pupa: 58
  Pupal Formation: Pupal Mortality: 5
[7]; 10 μg/Insect
  Adult emergence: Abnormal adults: 19
  Adult emergence: Intermediates: 1
  Adult emergence: Non-emergence: 2
  Adult emergence: Normal adults: 28
  Larval mortality (%): 46%
  Pupal Formation: Abnormal pupa: 10
  Pupal Formation: Normal pupa: 44
  Pupal Formation: Pupal Mortality: 6
[7]; 20 μg/Insect
  Adult emergence: Abnormal adults: 17
  Adult emergence: Intermediates: 21
  Adult emergence: Non-emergence: 2
  Adult emergence: Normal adults: 15
  Larval mortality (%): 59%
  Pupal Formation: Abnormal pupa: 16
  Pupal Formation: Normal pupa: 25
  Pupal Formation: Pupal Mortality: 7
[7]; 35 μg/Insect
  Adult emergence: Abnormal adults: 11
  Adult emergence: Intermediates: 2
  Adult emergence: Non-emergence: 3
  Adult emergence: Normal adults: 9
  Larval mortality (%): 71%
  Pupal Formation: Abnormal pupa: 10
  Pupal Formation: Normal pupa: 19
  Pupal Formation: Pupal Mortality: 7
[7]; 50 μg/Insect
  Adult emergence: Abnormal adults: 9
  Adult emergence: Intermediates: 3
  Adult emergence: Non-emergence: 1
  Adult emergence: Normal adults: 4
  Larval mortality (%): 80%
  Pupal Formation: Abnormal pupa: 13
  Pupal Formation: Normal pupa: 7
  Pupal Formation: Pupal Mortality: 4
[7]; 75 μg/Insect
  Adult emergence: Abnormal adults: 2
  Adult emergence: Intermediates: 0
  Adult emergence: Non-emergence: 2
  Adult emergence: Normal adults: 2
  Larval mortality (%): 91%
  Pupal Formation: Abnormal pupa: 7
  Pupal Formation: Normal pupa: 2
  Pupal Formation: Pupal Mortality: 5
[7]; 100 μg/Insect
  Adult emergence: Abnormal adults: 1
  Adult emergence: Intermediates: 0
  Adult emergence: Non-emergence: 0
  Adult emergence: Normal adults: 0
  Larval mortality (%): 98%
  Pupal Formation: Abnormal pupa: 2
  Pupal Formation: Normal pupa: 0
  Pupal Formation: Pupal Mortality: 1

## CC[C@@]1(O)C(=O)OCc2c1cc1n(c2=O)Cc2cc3ccccc3nc2-1 [Chamtothecin, reference compound]
[8]
  LC50 ± S.E.: 2.53 ± 0.43 µg/mL (≈ 7.26 µM)
